According to publication PMC6522510 (Nature Communications, 2019):

Tests used:
[1] = test system: MV4-11; assay: cells; design: species or system AML cell lines (8); Secondary HTS, 10-point dose-response in triplicate, Cell Titer Glo viability, four-parameter fit EC50; settings: Homo sapiens, MV4-11, 72 h, read-out: MV4-11
[2] = test system: MOLM-13; assay: cells; design: species or system AML cell lines (8); Secondary HTS, 10-point dose-response in triplicate, Cell Titer Glo viability, four-parameter fit EC50; settings: Homo sapiens, MOLM-13, 72 h, read-out: MOLM-13
[3] = test system: MV4-11; assay: Secondary dose-response HTS, Cell Titer Glo; format: cell-based, human; settings: Homo sapiens; secondary high-throughput screen; MV4-11; read-out: average effective concentration, MV4-11
[4] = test system: CHRF288-11; assay: Secondary dose-response HTS, Cell Titer Glo; format: cell-based, human; settings: Homo sapiens, HTS; secondary high-throughput screen; CHRF288-11; read-out: average effective concentration, CHRF288-11
[5] = test system: CMK; assay: Secondary dose-response HTS, Cell Titer Glo; format: cell-based, human; settings: Homo sapiens, CMK, read-out: average effective concentration, CMK
[6] = test system: MOLM-13; assay: Secondary dose-response HTS, Cell Titer Glo; format: cell-based, human; settings: Homo sapiens; secondary high-throughput screen; MOLM-13; read-out: average effective concentration, MOLM-13
[7] = test system: ML2; assay: Secondary dose-response HTS, Cell Titer Glo; format: cell-based, human; settings: Homo sapiens; secondary high-throughput screen; ML-2; read-out: average effective concentration, ML-2
[8] = test system: CMS; assay: cells; design: species or system AML cell lines (8); Secondary HTS, 10-point dose-response in triplicate, Cell Titer Glo viability, four-parameter fit EC50; settings: 72 h, read-out: CMS
[9] = test system: U937; assay: Secondary dose-response HTS, Cell Titer Glo; format: cell-based, human; settings: Homo sapiens, U-937; secondary high-throughput screen; U937; read-out: average effective concentration, U937
[10] = test system: M07e; assay: cells; design: species or system AML cell lines (8); Secondary HTS, 10-point dose-response in triplicate, Cell Titer Glo viability, four-parameter fit EC50; settings: M-07e, 72 h, read-out: M07e
[11] = test system: CHRF288-11; assay: cells; design: species or system AML cell lines (8); Secondary HTS, 10-point dose-response in triplicate, Cell Titer Glo viability, four-parameter fit EC50; settings: 72 h, read-out: CHRF288-11
[12] = test system: U937; assay: cells; design: species or system AML cell lines (8); Secondary HTS, 10-point dose-response in triplicate, Cell Titer Glo viability, four-parameter fit EC50; settings: Homo sapiens, U-937, 72 h, read-out: U937
[13] = test system: CMK; assay: cells; design: species or system AML cell lines (8); Secondary HTS, 10-point dose-response in triplicate, Cell Titer Glo viability, four-parameter fit EC50; settings: Homo sapiens, CMK, 72 h, read-out: CMK
[14] = secondary high-throughput screen

O=C(CCCCCN1C(=O)c2cccc3cccc(c23)C1=O)NO
EC50 [1]: > 10 µM | EC50 [2]: > 10 µM

COc1cc(N2CCC(N3CCN(C)CC3)CC2)ccc1Nc1ncc(Cl)c(Nc2ccccc2P(C)(C)=O)n1 [AP26113]
EC50 [3]: 0.6 µM | EC50 [4]: 6 µM | EC50 [5, 14]: 6.5 µM | EC50 [6]: 0.26 µM | EC50 [7]: 4 µM | EC50 [8]: > 10 µM | EC50 [9]: 7.8 µM | EC50 [10]: > 10 µM

COc1cc(N2CCC(N3CCN(C)CC3)CC2)ccc1Nc1ncnc(Nc2ccccc2S(=O)(=O)C(C)C)n1 [ASP3026]
EC50 [3]: > 10 µM | EC50 [5, 14]: 9.5 µM | EC50 [6]: 8 µM | EC50 [11]: > 10 µM | EC50 [7]: > 10 µM | EC50 [8]: > 10 µM | EC50 [12]: > 10 µM | EC50 [10]: > 10 µM

C[C@H]1[C@H](OC(=O)CCC(=O)O)O[C@@H]2O[C@@]3(C)CC[C@H]4[C@H](C)CC[C@@H]1[C@@]24OO3 [Artesunate]
EC50 [1]: > 10 µM | EC50 [13]: > 10 µM

C[C@@]1(C(=O)Nc2ccc(F)nc2)CCCN1c1nc(Nc2cc(C3CC3)n[nH]2)c2cccn2n1 [BMS-754807]
EC50 [3]: 10 µM | EC50 [5, 14]: 2 µM | EC50 [6]: 8.4 µM | EC50 [11]: > 10 µM | EC50 [7]: 2 µM | EC50 [8]: > 10 µM | EC50 [12]: > 10 µM | EC50 [10]: > 10 µM

CC(C)C[C@H](NC(=O)[C@H](Cc1ccccc1)NC(=O)c1cnccn1)B(O)O [Bortezomib]
EC50 [11]: 0.0021 µM

CS(=O)(=O)N1CCc2c(-c3cnc(N)nc3)nc(N3CCOCC3)nc21 [CH-5132799]
EC50 [3]: 3.9 µM | EC50 [4]: 9.4 µM | EC50 [5, 14]: 1.5 µM | EC50 [6]: 2.5 µM | EC50 [7]: 6.9 µM | EC50 [8]: > 10 µM | EC50 [9]: 4 µM | EC50 [10]: > 10 µM

CO[C@@H](C(=O)N1Cc2n[nH]c(NC(=O)c3ccc(N4CCN(C)CC4)cc3)c2C1)c1ccccc1 [DANUSERTIB]
EC50 [3]: 0.48 µM | EC50 [5]: > 10 µM | EC50 [6]: 1.4 µM | EC50 [11]: > 10 µM | EC50 [7]: 0.61 µM | EC50 [8]: > 10 µM | EC50 [9]: 3.8 µM | EC50 [10]: > 10 µM

O=c1oc2c(O)c(O)cc3c(=O)oc4c(O)c(O)cc1c4c23 [ELLAGIC ACID]
EC50 [6]: 0.8 µM | EC50 [11]: > 10 µM | EC50 [7]: 0.51 µM | EC50 [8]: > 10 µM | EC50 [1]: > 10 µM | EC50 [12]: > 10 µM | EC50 [10]: > 10 µM | EC50 [13]: > 10 µM

CN1c2ccccc2C(=O)N2CCc3c([nH]c4ccccc34)[C@H]21 [EVODIAMINE]
EC50 [11]: > 10 µM | EC50 [1]: > 10 µM | EC50 [2]: > 10 µM

CN[C@@H](C)C(=O)N[C@H](C(=O)N1CCC[C@H]1c1nc(C(=O)c2ccc(F)cc2)cs1)C1CCCCC1 [LCL-161]
EC50 [4]: 8.5 µM | EC50 [6]: > 10 µM | EC50 [7]: 5 µM | EC50 [8]: > 10 µM | EC50 [1]: > 10 µM | EC50 [12]: > 10 µM | EC50 [10]: > 10 µM | EC50 [13]: > 10 µM

CCN1CCN(Cc2ccc(Nc3ncc(F)c(-c4cc(F)c5nc(C)n(C(C)C)c5c4)n3)nc2)CC1 [LY2835219]
EC50 [3]: 1.9 µM | EC50 [6]: 1.9 µM | EC50 [11]: > 10 µM | EC50 [7]: 4 µM | EC50 [8]: > 10 µM | EC50 [9]: 2 µM | EC50 [10]: > 10 µM | EC50 [13]: > 10 µM

CN(Cc1cnc2nc(N)nc(N)c2n1)c1ccc(C(=O)N[C@@H](CCC(=O)O)C(=O)O)cc1 [METHOTREXATE]
EC50 [4]: 0.001 µM | EC50 [5, 14]: 0.0045 µM | EC50 [6]: > 10 µM | EC50 [7]: 0.001 µM | EC50 [8]: > 10 µM | EC50 [1]: > 10 µM | EC50 [12]: > 10 µM | EC50 [10]: > 10 µM

NC(=O)c1cccc2cn(-c3ccc([C@@H]4CCCNC4)cc3)nc12 [NIRAPARIB]
EC50 [3]: > 10 µM | EC50 [4]: 0.22 µM | EC50 [5, 14]: 0.28 µM | EC50 [6]: 7.6 µM | EC50 [7]: 0.18 µM | EC50 [9]: > 10 µM

CCNC(=O)c1noc(-c2cc(C(C)C)c(O)cc2O)c1-c1ccc(CN2CCOCC2)cc1 [NVP-AUY922]
EC50 [3]: 0.001 µM | EC50 [4]: 0.021 µM | EC50 [5, 14]: 0.001 µM | EC50 [6]: 0.001 µM | EC50 [7]: 0.023 µM | EC50 [8]: > 10 µM | EC50 [9]: 0.001 µM | EC50 [10]: > 10 µM
